Measured values taken from patent publication US20210315898A1, “COMBINATION THERAPY FOR TREATING CANCER” (AstraZeneca AB, priority 2018, published 2021).

Columns and labels:
HL-60 AML cells = assay: HL-60 subcutaneous xenograft model of AML, tumor volume and survival; format: in vivo, SCID mice; conditions: HL-60 xenograft, FIG. 2; AZD2811 nanoparticles 25 mg/kg iv once weekly; 5-azacytidine 1 mg/kg ip twice-daily for three days, 4 rest days; 3 weekly cycles, start day 7; monotherapy compared with KG1a model
Experimental: (§1) HL-60: 1×10^7 HL-60 AML cells in 50% matrigel were implanted subcutaneously on the left flank of adult female SCID mice. Mice were randomised into groups of 12 and dosing was started for all drugs and all combinations at day 7 respectively following implant. AZD2811 nanoparticles were dosed at once weekly with a 20-30 s intravenous infusion at either 25 mg/kg (100 mg/kg was the maximum tolerated dose in combination 5-azacytidine at 1 mg/kg; 5-azacytidine was dosed twice-daily for three days by the intraperitoneal route, followed by 4 rest days of no dosing). All drugs were given for 3 weekly cycles. Tumors were measured twice weekly by single operators, and all dosing was performed by randomised cage to minimise systematic bias. Mice reached study survival endpoint when tumors reached 1.5 cm^3

KG1a AML cells = assay: KG1a subcutaneous xenograft model of AML, tumor volume; format: in vivo, SCID mice; conditions: FIG. 1, AZD2811 nanoparticles 100 mg/kg iv once weekly, 5-azacytidine 1 mg/kg ip twice-daily for three days, 4 rest days, 3 weekly cycles, start day 1
Experimental: as §1, with “KG1a: 2×10^7 KG1a” for “HL-60: 1×10^7 HL-60”, “1 (D1)” for “7 respectively”, “100” for “either 25”, “surival” for “survival”, “cm^3.” for “cm^3”

In the case of `Nc1ncn([C@@H]2O[C@H](CO)[C@@H](O)[C@H]2O)c(=O)n1` [5-azacytidine, 4-amino-1-(β-D-ribofuranosyl)-1,3,5-triazin-2(1H)-one], the “efficacy (reduction in tumor volume over time)” value (HL-60 AML cells) is reported as “greater efficacy” and the “efficacy (reduction in tumor volume over time)” value (KG1a AML cells) is reported as “modestly efficacious”.
